{"source": "patent US9926585B2", "about": "“Method for producing a minor ginsenoside using a ginsenoside glycosidase” (INTELLIGENT SYNTHETIC BIOLOGY CENTER, priority 2015, dated 2018)", "key": {"[1]": {"tested_on": "ginsenoside glycosidase MT619", "experiment": "Effects of metals and chemical reagents on MT619 activity (residual activity, pNPG substrate)", "format": "biochemical, Microbacterium testaceum"}, "[2]": {"tested_on": "ginsenoside glycosidase MT619", "experiment": "Substrate specificity of MT619 with chromogenic ONP and PNP substrates", "format": "biochemical, Microbacterium testaceum", "settings": "for substrate specificity of MT619: 2.0 mM substrate, 37° C.; for Relative activity (%) MT619: final substrate concentration 2.0 mM, 37° C. for 5 minutes, relative to enzymatic activity for pNP-β-D-glucopyranoside", "experimental": "In order to analyze substrate specificity of […], 2.0 mM chromogenic O-nitrophenyl (ONP) and p-nitrophenyl (PNP) were used as substrates, and measured at 37° C. for 5 minutes. 1 activity unit was defined as the release of 1 μmol of o-nitrophenol or p-nitrophenol per minute. Substrates used for analysis were pNP-α-L-arabinofuranoside, pNP-β-L-arabinopyranoside, pNP-α-L-D-fucopyranoside, pNP-α-L-rhamnopyranoside, pNP-α-D-glucopyranoside, pNP-α-D-mannopyranoside, pNP-β-D-galactopyranoside, oNP-β-D-glucopyranoside, oNP-β-D-fucopyranoside, pNP-β-D-xylopyranoside, pNP-β-L-arabinofuranoside, oNP-β-D-fucopyranoside, oNP-α-D-galactopyranoside, and pNP-β-D-glucopyranoside, which were purchased from Sigma."}, "[3]": {"tested_on": "ginsenoside glycosidase MT619", "experiment": "Ginsenoside conversion ability of MT619 (TLC)", "format": "biochemical, Microbacterium testaceum", "settings": "2.0 mg/ml MT619, 2.0 mg/ml substrate, 37° C., 1.5 hr", "experimental": "In order to analyze the specificity and selectivity of the enzyme for the hydrolysis of a sugar attached at the C-6 position of ginsenoside, ginsenoside Re, Rg1 and Rg2 were used as the substrates.\n2.0 mg/ml of MT619 in 50 mM sodium phosphate buffer (pH 7.0) was reacted with each 2.0 mg/ml of the three substrates in 50 mM sodium phosphate (pH 6.0) at an equal volume at 37° C. In order to measure cleavage activity of MT619, the samples were collected at 1.5 hr after reaction, and an equal volume of water-saturated butanol was added to stop the reaction. The n-butanol fraction was evaporated to dryness, and residual material was dissolved in CH3OH and then examined by thin layer chromatography (TLC), and the results are given in FIG. 4."}, "[4]": {"experiment": "F1 production ability from ginsenoside Rg1, MT619 compared with BgpA", "format": "biochemical", "excerpt": "In order to evaluate production ability of MT619 to produce F1 by using Rg1 as a substrate, its F1 production ability was compared with that of ginsenoside glucosidase derived from […].\nBgpA derived from Terrabacter ginsenosidimutans, which is known to produce F1 by using ginsenoside Rg1 as a substrate, was used as a comparative control group."}, "[5]": {"format": "biochemical", "settings": "2.0 mM pNPGlc, 50 mM potassium phosphate buffer, 10 minutes, 4 to 65° C.", "experimental": "In order to measure the effect of temperature on the enzymatic activity of MT619, 2.0 mM pNPGlc (p-nitrophenyl-3-Dglucopyranoside; Sigma) was used to analyze the temperature-dependent activity in the 50 mM potassium phosphate buffer at the optimum pH for 10 minutes while varying the temperature between 4 to 65° C.\nFurther, in order to measure the effect of temperature on the enzymatic stability of MT619, the equivalent amount of enzyme was incubated in 50 mM potassium phosphate buffer within the same temperature range for 30 minutes. In detail, the sample was cooled in ice for 10 minutes, and temperature stability analysis was performed by measuring the residual activity according to a standard analytical procedure, and the results are given in FIG. 3."}, "[6]": {"experiment": "Effect of pH on enzymatic activity and stability of MT619", "format": "biochemical", "experimental": "In order to measure the effect of pH on the enzymatic activity of MT619, 2.0 mM pNPGlc (p-nitrophenyl-D-glucopyranoside; Sigma) was used as a substrate, and pH was adjusted using the following buffer (50 mM). pH range of 2 to 10: KCl—HCl (pH 2), glycine-HCl (pH 3), sodium acetate (pH 4 and pH 5), sodium phosphate (pH 6 and pH 7), Tris-HCl (pH 8 and pH 9) and glycine-sodium hydroxide (pH 10).\nFurther, the effect of pH on the enzymatic stability was measured. Enzyme was incubated in each of the above mentioned buffers at 4° C. for 24 hours, and then pNPGlc was analyzed in 50 mM potassium buffer to measure the enzymatic stability according to pH change. Residual activity was analyzed according to a standard analytical procedure, and the results are given in FIG. 2 as an activity percentage obtained at the optimum pH."}, "[7]": {"settings": "10 mM reagent, 37° C. for 30 minutes, pNPG substrate, residual activity as percentage of activity without the compounds"}}, "note": "“Also recorded” adds a separate entry of the source. Read-outs that look alike come from different tables or passages of the source.", "data": [{"molecule": "[Ca+2].[Cl-].[Cl-]", "note": "[CaCl2]", "values": [{"measurement": "Relative activity (%)", "setting": "[1]; [7]", "result": "132.8 ± 2.4", "unit": "%"}, {"measurement": "effect of ions on enzymatic activity of MT619", "setting": "[1]; 10 mM, 37° C., 30 minutes, listed as Ca^2+", "result": "did not greatly increase; also recorded: not greatly increased"}]}, {"molecule": "OCCS", "note": "[Beta-Mercaptoethanol]", "values": [{"measurement": "Relative activity (%)", "setting": "[1]; [7]", "result": "94 ± 2", "unit": "%"}]}, {"molecule": "[Cl-].[Na+]", "note": "[Nacl, NaCl]", "values": [{"measurement": "Relative activity (%)", "setting": "[1]; [7]", "result": "128.1 ± 3.7", "unit": "%"}, {"measurement": "effect of ions on enzymatic activity of MT619", "setting": "[1]; 10 mM, 37° C., 30 minutes, listed as Na^+", "result": "did not greatly increase; also recorded: not greatly increased"}]}, {"molecule": "O=[N+]([O-])c1ccccc1O[C@@H]1O[C@H](CO)[C@@H](O)[C@H](O)[C@H]1O", "note": "[oNP-β-glucopyranoside, oNP-β-D-glucopyranoside]", "values": [{"measurement": "substrate specificity of MT619", "setting": "[2]", "result": "showed substrate specificity"}, {"measurement": "Relative activity (%) MT619", "setting": "[2]", "result": "28.7 ± 2.1", "unit": "%"}]}, {"molecule": "[Cl][Cu][Cl]", "note": "[CuCl2]", "values": [{"measurement": "effect of ions on enzymatic activity of MT619", "setting": "[1]; 10 mM, 37° C., 30 minutes", "result": "strongly inhibited"}]}, {"molecule": "[Cl-].[Cl-].[Mg+2]", "note": "[MgCl2]", "values": [{"measurement": "Relative activity (%)", "setting": "[1]; [7]", "result": "112.7 ± 4.1", "unit": "%"}]}, {"molecule": "O=C(O)CN(CCN(CC(=O)O)CC(=O)O)CC(=O)O", "note": "[EDTA]", "values": [{"measurement": "Relative activity (%)", "setting": "[1]", "result": "80.9 ± 2.3", "unit": "%"}]}, {"molecule": "[Cl][Mn][Cl]", "note": "[MnCl2]", "values": [{"measurement": "Relative activity (%)", "setting": "[1]; [7]", "result": "59.9 ± 2.6", "unit": "%"}]}, {"molecule": "CC(C)=CCC[C@](C)(O[C@@H]1O[C@H](CO)[C@@H](O)[C@H](O)[C@H]1O)[C@H]1CC[C@]2(C)[C@@H]1[C@H](O)C[C@@H]1[C@@]3(C)CC[C@H](O)C(C)(C)[C@@H]3[C@@H](O[C@@H]3O[C@H](CO)[C@@H](O)[C@H](O)[C@H]3O[C@@H]3O[C@@H](C)[C@H](O)[C@@H](O)[C@H]3O)C[C@]12C", "note": "[Re, ginsenoside Re]", "values": [{"measurement": "conversion of ginsenoside by MT619 (TLC, words)", "setting": "[3]", "result": "converted into ginsenoside F1"}]}, {"molecule": "CCCCCCCCCCCCOS(=O)(=O)[O-].[Na+]", "note": "[SDS]", "values": [{"measurement": "Relative activity (%)", "setting": "[1]; [7]", "result": "80.6 ± 6.1", "unit": "%"}]}, {"molecule": "O[C@H](CS)[C@H](O)CS", "note": "(racemic) [DTT, dithiothreitol]", "values": [{"measurement": "Relative activity (%)", "setting": "[1]; [7]", "result": "79.6 ± 1.6", "unit": "%"}]}, {"molecule": "[Cl-].[Cl-].[Co+2]", "note": "[CoCl2]", "values": [{"measurement": "Relative activity (%)", "setting": "[1]", "result": "17.9 ± 0.5", "unit": "%"}, {"measurement": "effect of ions on enzymatic activity of MT619", "setting": "[1]", "result": "strongly inhibited"}]}, {"molecule": "O=[N+]([O-])c1ccc(O[C@@H]2O[C@H](CO)[C@@H](O)[C@H](O)[C@H]2O)cc1", "note": "[pNP-β-D-glucopyranoside, p-nitrophenyl-β-D-glucopyranoside]", "values": [{"measurement": "substrate specificity of MT619", "setting": "[2]", "result": "highest substrate specificity"}, {"measurement": "Relative activity (%) MT619", "setting": "[2]", "result": "100 ± 1.2", "unit": "%"}]}, {"molecule": "[Cl-].[Cl-].[Zn+2]", "note": "[ZnCl2]", "values": [{"measurement": "effect of ions on enzymatic activity of MT619", "setting": "[1]; 10 mM, 37° C., 30 minutes", "result": "strongly inhibited"}]}, {"molecule": "CC(C)=CCC[C@](C)(O[C@@H]1O[C@H](CO)[C@@H](O)[C@H](O)[C@H]1O)[C@H]1CC[C@]2(C)[C@@H]1[C@H](O)C[C@@H]1[C@@]3(C)CC[C@H](O)C(C)(C)[C@@H]3[C@@H](O[C@@H]3O[C@H](CO)[C@@H](O)[C@H](O)[C@H]3O)C[C@]12C", "note": "[Rg1, ginsenoside Rg1]", "values": [{"measurement": "conversion of ginsenoside by MT619 (TLC, words)", "setting": "[3]", "result": "conversion of ginsenoside Rg1 into F1 was confirmed; also recorded: converted into ginsenoside F1"}]}, {"molecule": "[Cl-].[K+]", "note": "[KCl]", "values": [{"measurement": "Relative activity (%)", "setting": "[1]; [7]", "result": "95.3 ± 1.1", "unit": "%"}, {"measurement": "effect of ions on enzymatic activity of MT619", "setting": "[1]; 10 mM, 37° C., 30 minutes, listed as K^+", "result": "did not greatly increase; also recorded: not greatly increased"}]}, {"molecule": "[Cl][Hg][Cl]", "note": "[HgCl2]", "values": [{"measurement": "effect of ions on enzymatic activity of MT619", "setting": "[1]; 10 mM, 37° C., 30 minutes", "result": "strongly inhibited"}]}, {"molecule": "MT619: ginsenoside glycosidase of SEQ ID NO: 1 screened from Microbacterium testaceum, 619 amino acids (protein, listed as Microbacterium testaceum) MTHARFLTAPDGTRFRDLNGNGVMDPYENPALSVEERTDDLVSRLSLEEKVGLMFQTVIEVGDEGELLEAPGKISKSPTTTVVVGKHMNHFNVHAIRTARQAATWNNNLQALAETTPHGIPVTISTDPRHAFVENTGVAFSAGPFSQWPEGLGLAALDDVDTVREFAEVARREYVAVGIRAALHPQIDLATEPRWGRQAQTLGQDAARVTEFTAAYLQGFQGDELGPDSVACTTKHFPGGGPQLDGEDAHFPYGREQVYPGGMFDYHLEPFREAIRCGTAGMMPYYGMPVGLEVDGLPIEEVGFGYNRQIITGLLREQLGYDGVVVTDWELVNDNHVGDQVLPARAWGVEHLSAVERMEKILDAGSDQFGGEECVEMLVDLVRAGRVSEERIDESVRRLLRVKFQLGLFDDPYVDVDEAERIVGNAEFRALGERAQAHSLTVLVNEGDVLPLRPAGAVYIEGFRPDDVAELGRVVTDPAEADLAIVRIGAPFDPRDDLFLEAWFHQGSLEFAPGLVYRLQQIAASCPLILVVNLDRPAILTPFVGHAAAIVADYGSSSAAVLDALTGRVPPRGRLPIEIPRSMDAVRSSREDVPSDTGDPVFPVHHGVELKVSTGAQRG", "values": [{"measurement": "time of highest F1 production ability after initiation of the reaction", "setting": "[4]; enzyme 0.1 mg/ml, Rg1 substrate", "result": 2, "unit": "h"}, {"measurement": "F1 produced", "setting": "[4]; enzyme concentration 0.1 mg/ml, Rg1 (2.0 mg/ml) as substrate", "result": 1.3, "unit": "mg"}, {"measurement": "production of F1 relative to BgpA", "setting": "[4]; enzyme concentration 0.1 mg/ml, Rg1 as substrate", "result": 7, "unit": "times"}, {"measurement": "temperature of highest activity (optimum temperature)", "setting": "[5]", "result": 45, "unit": "°C"}, {"measurement": "pH of highest activity and stability", "setting": "[6]; pH 2 to 10 buffers 50 mM, stability after 4° C. for 24 hours", "result": 7.0}, {"measurement": "pH of highest stability", "setting": "[6]; summary statement of Example 3-2", "result": 7.0}]}]}
